This is an account of results in patent US8377945B2, “Small molecule inhibitors of spleen tyrosine kinase (SYK)” (Rigel Pharmaceuticals Inc., priority 2009, dated 2013).

In test [1] the test system is Human mast cells (CHMC cells). Briefly: Tryptase release assay (mast cell degranulation induced by anti-IgG FcγR cross-linking). Format: cell-based. The conditions noted are these: IC50 of tryptase release from human mast cells after anti-IgG stimulation, read-out: LD Tryptase. The procedure:
Compounds were assayed for inhibition of mast cell activation induced by FcγR cross-linking by measuring the activity of tryptase released upon degranulation as follows:
Human mast cells were cultured and differentiated from […] progenitor cell as described in U.S. Patent Publication No. 2005-234049, incorporated herein by reference. For example, 65 μl of various concentrations of the compound to be assayed were prepared in MT (137 mM NaCl, 2.7 mM KCl, 1.8 mM CaCl2, 1.0 mM MgCl2, 5.6 mM Glucose, 20 mM Hepes (pH 7.4), 0.1% Bovine Serum Albumin, (Sigma A4503)) containing 2% MeOH and 1% DMSO, or control buffer were added to duplicate 96-well V-bottom plates. Pelleted and resuspended (in warm MT) CHMC cells (65 μl) were added to each 96-well plate, mixed and incubated for 1 hour at 37° C. 25 μl of 6× anti-IgG Rabbit anti-human IgG, Affinity purified (Bethyl Laboratories Cat No. A80-105A3) final concentration 1 μg/ml, was added to the test wells. MT (25 μl) was added to control wells. After a 60-minute incubation at 37° C., cells and cell debris were pelleted by centrifugation at 1000 rpm for 10 min and tryptase and leukotriene C4 levels were measured.
To measure tryptase levels, 25 μl of supernatant from each well was transferred to a fresh 96-well black bottom plate, to which 100 μl of fresh tryptase substrate solution [(Z-Ala-Lys-Arg-AMC2TFA; Enzyme Systems Products, #AMC-246)] 1:2000 in tryptase assay buffer [0.1 M Hepes (pH 7.5), 10% w/v Glycerol, 10 μM Heparin (Sigma H-4898) 0.01% NaN3] was added. After 30 minute incubation at room temperature, the optical density of the plates is measured at 355 nm/460 nm on a spectrophotometric plate reader. Table 2 provides the IC50 values.

The target in the next test is T1, Syk kinase (Homo sapiens, UniProt P43405).
T1 construct: purchased Millipore 14-314
Nature of the test: ELISA-based Syk kinase assay (phosphorylation of HS1 peptide substrate by isolated Syk kinase). It is filed as biochemical. The following applies: IC50 of Syk kinase inhibition; 2 μM ATP, 2 μM peptide substrate. The method in brief: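 Recombinant Syk (0.25 ng) phosphorylated biotinylated HS1 peptide (2 μM) with 2 μM ATP in 20 mM HEPES pH 7.4, 5 mM MgCl2, 2 mM MnCl2, 1 mM DTT, 0.01% Tween 20, 3% DMSO, 30 min at room temperature on neutravidin plates. Phosphotyrosine detected by anti-pTyr/HRP chemiluminescent ELISA.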
For orientation: An ELISA detects its analyte on a solid surface through an enzyme-linked reagent.

Structures are written as SMILES. Bounds are passed on as bounds.

As for `COc1cc(Nc2c(-c3ccc(OC)c(OCC(N)=O)c3)[nH]c3c(C#N)cnn23)ccc1F` [Compound 138], the IC50 in test [1] was less than 10 µM; against Syk kinase, 0.51 to 2.99 µM.

Consider `COc1cc(Nc2c(-c3ccc(OCC(N)=O)c(OC)c3)[nH]c3c(C#N)cnn23)ccc1F` [Compound 139], for which the results for the IC50 (in test [1]; at Syk kinase) were less than 10 µM and less than 0.5 µM, respectively.

With `COc1ccc(Nc2c(-c3ccc(OCC(=O)NC4CC4)c(OC)c3)[nH]c3c(C#N)cnn23)cc1OC` [Compound 140], the IC50 in test [1] is less than 10 µM; against Syk kinase, less than 0.5 µM.

Turning to `COc1cc(-c2[nH]c3c(C#N)cnn3c2Nc2ccc(OC(C)C)c(Cl)c2)cc(OC)c1OC` [Compound 141], the IC50 is less than 10 µM in test [1] and 0.51 to 2.99 µM against Syk kinase.

Take `COc1cc(Nc2c(-c3cc(OC)c(OC)c(OC)c3)[nH]c3c(C#N)cnn23)cc(OC)c1` [Compound 142]: the results for the IC50 (in test [1]; against Syk kinase) were less than 10 µM and less than 0.5 µM, respectively.

With `COc1cc(-c2[nH]c3c(C#N)cnn3c2Nc2cc(F)c(OC)c(F)c2)cc(OC)c1OC` [Compound 143], the values for the IC50 (in test [1]; against Syk kinase) were less than 10 µM and less than 0.5 µM, respectively.

`CCOc1cc(Nc2c(-c3cc(OC)c(OC)c(OC)c3)[nH]c3c(C#N)cnn23)ccc1F` [Compound 144]: the IC50 was less than 10 µM in test [1] and 0.51 to 2.99 µM against Syk kinase.

`COc1cc(-c2[nH]c3c(C#N)cnn3c2Nc2ccc(F)c(OC3CCCC3)c2)cc(OC)c1OC` [Compound 145]: the IC50 in test [1] is less than 10 µM; against Syk kinase, 0.51 to 2.99 µM.

Turning to `COc1cc(-c2[nH]c3c(C#N)cnn3c2Nc2cccc(CNC(=O)c3cccnc3)c2)cc(OC)c1OC` [Compound 146], the IC50 in test [1] is 11 to 100 µM; against Syk kinase, 0.51 to 2.99 µM.

Take `COc1cc(-c2[nH]c3c(C#N)cnn3c2Nc2cccc(CNC(=O)c3ccccn3)c2)cc(OC)c1OC` [Compound 147]: the results for the IC50 (in test [1]; on Syk kinase) were less than 10 µM and less than 0.5 µM, respectively.

As to `COc1cc(-c2[nH]c3c(C#N)cnn3c2Nc2cccc(CNC(=O)c3ccncc3)c2)cc(OC)c1OC` [Compound 148], the values for the IC50 (in test [1]; at Syk kinase) were 101 to 5000 µM and less than 0.5 µM, respectively.

On to `COc1cc(-c2[nH]c3c(C#N)cnn3c2Nc2ccc(CNC(=O)c3ccccn3)cc2)cc(OC)c1OC` [Compound 149], for which the IC50 in test [1] is less than 10 µM; against Syk kinase it was 0.51 to 2.99 µM.

In the case of `COc1cc(-c2[nH]c3c(C#N)cnn3c2Nc2ccc(CNC(=O)c3ccncc3)cc2)cc(OC)c1OC` [Compound 150], the IC50 lay in the range of 11 to 100 µM in test [1] and 0.51 to 2.99 µM against Syk kinase.

On to `COc1cc(-c2[nH]c3c(C#N)cnn3c2Nc2ccc(CNC(=O)c3ccc(C#N)nc3)cc2)cc(OC)c1OC` [Compound 151], for which the IC50 is greater than 5000 µM in test [1] and 0.51 to 2.99 µM on Syk kinase.

For `COc1cc(-c2[nH]c3c(C#N)cnn3c2Nc2ccc(CNC(=O)c3cccnc3C)cc2)cc(OC)c1OC` [Compound 152], the IC50 in test [1] was greater than 5000 µM; against Syk kinase, less than 0.5 µM.

On to `COc1cc(-c2[nH]c3c(C#N)cnn3c2Nc2ccc(CNC(=O)c3cccnc3OC)cc2)cc(OC)c1OC` [Compound 153], for which the IC50 in test [1] was less than 10 µM; against Syk kinase, less than 0.5 µM.

Regarding `COc1cc(-c2[nH]c3c(C#N)cnn3c2Nc2ccc(CNC(=O)c3ccc(C)nc3)cc2)cc(OC)c1OC` [Compound 154], the results for the IC50 (in test [1]; at Syk kinase) were 11 to 100 µM and 0.51 to 2.99 µM, respectively.

In the case of `COc1cc(-c2[nH]c3c(C#N)cnn3c2Nc2ccc(CNC(=O)c3cnccc3C(F)(F)F)cc2)cc(OC)c1OC` [Compound 155], the IC50 was less than 10 µM in test [1] and 0.51 to 2.99 µM on Syk kinase.

On to `COc1cc(-c2[nH]c3c(C#N)cnn3c2Nc2ccc(CNC(=O)c3ccc(C(F)(F)F)nc3)cc2)cc(OC)c1OC` [Compound 156], for which the values for the IC50 (in test [1]; on Syk kinase) were less than 10 µM and 0.51 to 2.99 µM, respectively.

On to `COc1cc(-c2[nH]c3c(C#N)cnn3c2Nc2ccc(SC)c(F)c2)cc(OC)c1OC` [Compound 157], for which the results for the IC50 (in test [1]; against Syk kinase) were 11 to 100 µM and less than 0.5 µM, respectively.
